The values that follow are results of earlier work, collected in article PMC6816764 (Journal of the American Chemical Society, 2018).

The conditions of data set [1]: cited from earlier work.
For data set [2] the following is noted: in nitrogen-sparged H2O; cited from earlier work.

As to `[Ru+2].c1ccc(-c2ccccn2)nc1.c1ccc(-c2ccccn2)nc1.c1ccc(-c2ccccn2)nc1` [[Ru(bpy)3]^2+], in data set [1] (in CH3OH), the ΦΔ of standard was 0.81. In addition, the Φem of reference in data set [2] is reported as 0.042.

[Ru(tpy)(dppn)(py)]^2+: in data set [1] (ref 58a), the 1O2 production efficiency was 98%.
